Laboratory results from patent US5130320A, “Glycosidase inhibiting 1,3-dideoxy-3-fluoronojirimycin” (Monsanto Company, priority 1991, dated 1992).

Experiments:
Format in all cases: biochemical
[1] = molecular target: T1, ALPHA MANNOSIDASE (Canavalia ensiformis, UniProt C0HJB3); assay: Alpha mannosidase inhibition, pH 4.5; conditions: for inhibition at 1000 µM: @ 1 mM; for inhibition at 5000 µM: @ 5 mM
T1 sequence (C0HJB3 1-981): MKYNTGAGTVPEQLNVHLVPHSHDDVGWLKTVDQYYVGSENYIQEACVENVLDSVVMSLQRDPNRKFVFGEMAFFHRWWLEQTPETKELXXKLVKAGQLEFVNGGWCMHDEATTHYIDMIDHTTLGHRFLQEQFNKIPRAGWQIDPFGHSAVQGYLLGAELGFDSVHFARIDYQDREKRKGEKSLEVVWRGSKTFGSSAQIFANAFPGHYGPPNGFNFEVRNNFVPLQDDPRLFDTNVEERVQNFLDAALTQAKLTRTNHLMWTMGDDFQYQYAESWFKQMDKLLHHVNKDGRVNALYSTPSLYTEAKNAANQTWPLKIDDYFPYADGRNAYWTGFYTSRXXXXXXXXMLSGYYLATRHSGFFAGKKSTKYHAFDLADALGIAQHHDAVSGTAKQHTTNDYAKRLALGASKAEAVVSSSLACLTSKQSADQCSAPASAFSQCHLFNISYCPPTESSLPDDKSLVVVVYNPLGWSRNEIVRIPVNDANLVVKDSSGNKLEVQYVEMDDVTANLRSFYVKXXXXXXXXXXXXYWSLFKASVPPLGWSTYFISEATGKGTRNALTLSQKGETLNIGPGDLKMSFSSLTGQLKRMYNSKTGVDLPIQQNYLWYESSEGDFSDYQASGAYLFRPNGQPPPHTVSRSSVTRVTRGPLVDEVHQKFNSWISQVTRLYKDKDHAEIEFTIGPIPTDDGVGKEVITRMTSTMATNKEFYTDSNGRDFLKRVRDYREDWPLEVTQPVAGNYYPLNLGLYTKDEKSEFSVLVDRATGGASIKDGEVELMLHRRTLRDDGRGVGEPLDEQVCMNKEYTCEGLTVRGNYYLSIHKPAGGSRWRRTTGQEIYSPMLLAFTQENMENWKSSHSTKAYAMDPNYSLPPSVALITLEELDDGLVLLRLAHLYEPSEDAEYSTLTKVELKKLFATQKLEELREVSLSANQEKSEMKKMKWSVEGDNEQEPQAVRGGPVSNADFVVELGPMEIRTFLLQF

[2] = molecular target: T1, ALPHA MANNOSIDASE; assay: Alpha mannosidase inhibition, pH 7.4; conditions: for inhibition at 1000 µM: @ 1 mM; for inhibition at 5000 µM: @ 5 mM
[3] = system: almond β-glucosidase; assay: β-Glucosidase inhibition assay, pH 4.8
Experimental: (§1) The glycosidase inhibition activity is determined by modifying an assay procedure described in Evans et al, Phytochemistry, 22, pp. 768-770 (1983). More particularly, yeast α-glucosidase and almond β-glucosidase activities were measured by the Evans et al method which was modified by assaying activities at pH 7.4 in N-2-hydroxyethylpiperazine-N-2-ethane sulfonic acid (HEPES) buffer, measuring in 96 well microtiter plates, and including 10% DMSO in control and test samples.
(§2) The release of p-nitrophenol from the substrate p-nitrophenylglycoside was measured spectrophotometrically in the presence and absence of test compound. Each assay included a known inhibitor of the enzyme as a standard. IC50 values were determined for compounds which inhibited the enzymes more than 50% at a 1 millimolar concentration.
To 100 ul 50 mM sodium citrate buffer, pH 4.8, in a microtiter plate, 20 ul test compound in DMSO (DMSO alone in control) and 20 ul (0.017 units) β-glucosidase (Sigma) in citrate buffer were added and pre-incubated at room temperature 15 minutes. 20 ul 2.50 mM p-nitrophenyl-β-D-glucopyranside in citrate buffer was added as substrate and incubated at room temperature minutes (reaction is linear for at least 30 minutes). 50 ul 0.4 M NaOH was added and the absorption change at 405 nm was determined utilizing a Biotek EIA Autoreader. Each sample was tested in triplicate. IC50 values were determined from the linear portion of the log concentration vs percent inhibition curve obtained from a minimum of 3 points. Castanospermine was used as standard inhibitor.

[4] = system: almond β-glucosidase; assay: β-Glucosidase inhibition assay, pH 7.4
Experimental: as §1, §2
To 100 ul 50 mM HEPES buffer, pH 7.4, in a microtiter plate, 20 ul test compound in DMSO (DMSO alone in control) and 40 ul (0.136 units) β-glucosidase (Sigma) in HEPES buffer were added and pre-incubated at room temperature 15 minutes. 40 ul 1.25 mM p-nitrophenyl-β-D-glucopyranoside in HEPES buffer was added as substrate and the absorbance change at 405 nm was monitored utilizing a Biotek EIA Autoreader. Absorption change was measured at 15 to 25 minutes (reaction is linear for at least 30 minutes). Each sample was tested in triplicate. IC50 values were determined from the linear portion of the log concentration vs percent inhibition curve obtained from a minimum of 3 points. Castanospermine was used as standard inhibitor.

[5] = molecular target: T2, yeast α-glucosidase (Saccharomyces cerevisiae, UniProt P53341); assay: α-Glucosidase inhibition assay, pH 7.4; conditions: read-out: ALPHA GLUCOSIDASE inhibition; for inhibition at 1000 µM: @ 1 mM; for inhibition at 5000 µM: @ 5 mM
T2 construct: purchased Sigma
Experimental: as §1, §2
To 100 ul 50 mM HEPES buffer, pH 7.4, in a microtiter plate, 20 ul test compound in DMSO (DMSO alone in control)and 40 ul (0.013 units) yeast α-glucosidase (Sigma) in HEPES buffer were added and pre-incubated at room temperature 15 minutes. 40 ul 1.25 mM p-nitrophenyl-α-D-gl-ucopyranoside (Sigma) in HEPES buffer, as substrate was added and the absorbance change at 405 nm was monitored in a Biotek EIA Autoreader. Absorption change was measured at 15 to 25 minutes (reaction was linear for at least 30 minutes). Each sample was tested in triplicate. IC50 values were determined from the linear portion of the log concentration vs percent inhibition curve obtained from a minimum of 3 points. Deoxynojirimycin was used as standard inhibitor.

T2 sequence (P53341 whole entry): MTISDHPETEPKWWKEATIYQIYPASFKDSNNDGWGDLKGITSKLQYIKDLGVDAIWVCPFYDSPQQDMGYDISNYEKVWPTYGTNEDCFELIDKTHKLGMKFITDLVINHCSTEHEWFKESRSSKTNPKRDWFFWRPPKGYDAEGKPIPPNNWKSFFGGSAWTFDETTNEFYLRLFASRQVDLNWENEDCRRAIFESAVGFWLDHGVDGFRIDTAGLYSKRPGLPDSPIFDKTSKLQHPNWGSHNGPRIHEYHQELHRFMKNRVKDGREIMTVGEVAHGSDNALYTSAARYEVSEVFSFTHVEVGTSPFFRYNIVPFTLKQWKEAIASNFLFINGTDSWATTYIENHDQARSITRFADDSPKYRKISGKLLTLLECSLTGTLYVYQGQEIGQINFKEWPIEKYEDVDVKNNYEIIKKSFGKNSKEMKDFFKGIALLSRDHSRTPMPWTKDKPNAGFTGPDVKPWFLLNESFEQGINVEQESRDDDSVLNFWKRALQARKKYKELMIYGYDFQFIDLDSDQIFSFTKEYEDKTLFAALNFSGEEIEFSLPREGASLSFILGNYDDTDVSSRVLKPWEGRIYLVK

**Q.** With OC[C@H]1NC[C@H](O)[C@@H](F)[C@@H]1O [Compound 1, 1,3-dideoxy-3-fluoronojirimycin] as the molecule, how does the inhibition at 1000 µM [1] read?
**A.** Its inhibition at 1000 µM is 11%.

**Q.** What about the inhibition at 5000 µM [1] of the same molecule?
**A.** The inhibition at 5000 µM was 19%.

**Q.** What about the inhibition at 1000 µM [2] of the same molecule?
**A.** Its inhibition at 1000 µM is 10%.

**Q.** And the inhibition at 5000 µM [2]?
**A.** Its inhibition at 5000 µM is 30%.

**Q.** And the “BETA GLUCOSIDASE-pH 4.8 inhibition” value ([3]; @ 1 mM)?
**A.** Its value is 4%.

**Q.** And the “BETA GLUCOSIDASE-pH 4.8 inhibition” value ([3]; @ 5 mM)?
**A.** Its value is 10%.

**Q.** And the “BETA GLUCOSIDASE-pH 7.4 inhibition” value ([4]; @ 1 mM)?
**A.** Its value is 3%.

**Q.** And the “BETA GLUCOSIDASE-pH 7.4 inhibition” value ([4]; @ 5 mM)?
**A.** Its value is 24%.

**Q.** And the inhibition at 1000 µM [5]?
**A.** The inhibition at 1000 µM was 26%.

**Q.** What about the inhibition at 5000 µM [5] of the same molecule?
**A.** Its inhibition at 5000 µM is 63%.

**Q.** For CCCCN1C[C@H](O)[C@@H](F)[C@H](O)[C@H]1CO [Compound 2, N-butyl-1,3-dideoxy-3-fluoronojirimycin], which inhibition at 1000 µM [1] is on record?
**A.** The inhibition at 1000 µM was 6%.

**Q.** What about the inhibition at 5000 µM [1] of the same molecule?
**A.** The inhibition at 5000 µM was 5%.

**Q.** What about the inhibition at 1000 µM [2] of the same molecule?
**A.** Its inhibition at 1000 µM is 7%.

**Q.** What about the inhibition at 5000 µM [2] of the same molecule?
**A.** Its inhibition at 5000 µM is 11%.

**Q.** What about the “BETA GLUCOSIDASE-pH 4.8 inhibition” value ([3]; @ 1 mM) of the same molecule?
**A.** Its value is 8%.

**Q.** What about the “BETA GLUCOSIDASE-pH 4.8 inhibition” value ([3]; @ 5 mM) of the same molecule?
**A.** Its value is -10%.

**Q.** And the “BETA GLUCOSIDASE-pH 7.4 inhibition” value ([4]; @ 1 mM)?
**A.** The value was 0%.

**Q.** And the “BETA GLUCOSIDASE-pH 7.4 inhibition” value ([4]; @ 5 mM)?
**A.** The value was 2%.

**Q.** And the inhibition at 1000 µM [5]?
**A.** The inhibition at 1000 µM was 11%.

**Q.** And the inhibition at 5000 µM [5]?
**A.** The inhibition at 5000 µM was 18%.
